The results in this text go back to the supplement of paper PMC10331698.

± gives the standard deviation of the averaged measurements.

Compound in assay [1]: OCC(F)(F)C(F)(F)C(F)(F)C(F)(F)C(F)(F)C(F)(F)C(F)(F)C(F)(F)C(F)(F)C(F)(F)C(F)(F)F [11:1 Fluorotelomer alcohol]
In words: level (log10 ratio to DMSO vehicle control); higher = higher biomarker level / cell amount than vehicle control. The conditions noted are these: in DMSO. As to the method:
(§1)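 BioMAP Diversity Plus panel of 12 human primary cell co-culture systems (3C, 4H, LPS, SAg, BT, BF4T, BE3C, CASM3C, HDF3CGF, KF3CT, MyoF, Mphg). Compounds were added 1 h before stimulation and left for 24 h (MyoF 48 h; BT 72 h for soluble read-outs or 6 d for IgG). Biomarkers were read by ELISA, cytotoxicity by SRB, PBMC viability and proliferation by Alamar Blue. Each well value was divided by the mean of 8 DMSO control wells on the same plate and log10 transformed; duplicate blinded samples were tested at 4 concentrations.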

Compound in assay [2]: O=P(O)(O)CCC(F)(F)C(F)(F)C(F)(F)C(F)(F)C(F)(F)C(F)(F)F [2-(Perfluorohexyl)ethylphosphonic acid]
Described as above. The note with it: in DMSO. The method, then: as §1

Consider lMphg:sIL-10, for which the “level (log10)” value in assay [1] (1100 nM) is -0.0255 ± 0.069; in assay [1] (3300 nM), -0.0875 ± 0.066; in assay [1] (10000 nM) it was -0.216 ± 0.082; in assay [2] (6700 nM) it was -0.0015 ± 0.083; in assay [2] (20000 nM) it was -0.091 ± 0.0014; in assay [2] (60000 nM), -0.0775 ± 0.09.
Turning to MyoF:Collagen IV, the “level (log10)” value was -0.0365 ± 0.05 in assay [1] (1100 nM); -0.0255 ± 0.028 in assay [1] (3300 nM); -0.01 ± 0.028 in assay [1] (10000 nM); -0.038 ± 0.0071 in assay [2] (6700 nM); -0.019 ± 0.03 in assay [2] (20000 nM); -0.0405 ± 0.0021 in assay [2] (60000 nM).
Turning to CASM3C:CD106/VCAM-1, the “level (log10)” value was -0.004 ± 0.024 in assay [1] (1100 nM); 0 ± 0.023 in assay [1] (3300 nM); -0.0105 ± 0.019 in assay [1] (10000 nM); -0.0105 ± 0.035 in assay [2] (6700 nM); 0.041 ± 0.014 in assay [2] (20000 nM); 0.0775 ± 0.044 in assay [2] (60000 nM).
In the case of CASM3C:CCL2/MCP-1, the “level (log10)” value in assay [1] (1100 nM) was -0.01 ± 0.024; in assay [1] (3300 nM), -0.0055 ± 0.012; in assay [1] (10000 nM) it was 0.012 ± 0.025; in assay [2] (6700 nM), -0.009 ± 0.0028; in assay [2] (20000 nM), -0.0145 ± 0.013; in assay [2] (60000 nM), -0.003 ± 0.033.
In the case of HDF3CGF:MMP-1, the “level (log10)” value in assay [1] (1100 nM) was -0.011 ± 0.0057; in assay [1] (3300 nM), -0.042 ± 0.0014; in assay [1] (10000 nM), -0.0255 ± 0.035; in assay [2] (6700 nM), 0.006 ± 0.0071; in assay [2] (20000 nM) it was -0.0095 ± 0.013; in assay [2] (60000 nM) it was -0.0045 ± 0.067.
For the test system 3C:CD106/VCAM-1, the “level (log10)” value in assay [1] (1100 nM) was 0.008 ± 0.016; in assay [1] (3300 nM), 0.007; in assay [1] (10000 nM) it was 0.022 ± 0.0099; in assay [2] (6700 nM), -0.012 ± 0.03; in assay [2] (20000 nM), -0.004 ± 0.025; in assay [2] (60000 nM) it was 0.0055 ± 0.061.
With KF3CT:CCL2/MCP-1, the “level (log10)” value in assay [1] (1100 nM) is 0.0265 ± 0.013; in assay [1] (3300 nM), 0.0205 ± 0.00071; in assay [1] (10000 nM), 0.0305 ± 0.00071; in assay [2] (6700 nM), -0.0405 ± 0.019; in assay [2] (20000 nM) it was -0.0515 ± 0.023; in assay [2] (60000 nM), -0.043 ± 0.013.
As for HDF3CGF:Proliferation 72hr, the “level (log10)” value in assay [1] (1100 nM) is -0.015 ± 0.065; in assay [1] (3300 nM), 0 ± 0.0099; in assay [1] (10000 nM), 0.021 ± 0.02; in assay [2] (6700 nM) it was -0.009 ± 0.068; in assay [2] (20000 nM) it was 0.119 ± 0.021; in assay [2] (60000 nM) it was 0.191 ± 0.03.
Turning to HDF3CGF:Collagen I, the “level (log10)” value in assay [1] (1100 nM) was 0.438 ± 0.0099; in assay [1] (3300 nM), 0.471 ± 0.03; in assay [1] (10000 nM), 0.394 ± 0.062; in assay [2] (6700 nM), -0.016 ± 0.0042; in assay [2] (20000 nM), -0.0365 ± 0.005; in assay [2] (60000 nM) it was -0.0865 ± 0.09.
Take 3C:CCL2/MCP-1: the “level (log10)” value in assay [1] (1100 nM) was -0.0005 ± 0.0064; in assay [1] (3300 nM), -0.007 ± 0.021; in assay [1] (10000 nM), 0.003 ± 0.04; in assay [2] (6700 nM), 0.001 ± 0.0042; in assay [2] (20000 nM), -0.0035 ± 0.019; in assay [2] (60000 nM), 0.019 ± 0.054.
In the case of CASM3C:SRB, the “level (log10)” value is 0.0075 ± 0.005 in assay [1] (1100 nM); 0.0095 ± 0.0064 in assay [1] (3300 nM); 0.008 ± 0.0071 in assay [1] (10000 nM); -0.0005 ± 0.0035 in assay [2] (6700 nM); -0.012 ± 0.017 in assay [2] (20000 nM); -0.016 ± 0.02 in assay [2] (60000 nM).
Take BE3C:tPA: the “level (log10)” value in assay [1] (1100 nM) was -0.0125 ± 0.011; in assay [1] (3300 nM) it was -0.033 ± 0.011; in assay [1] (10000 nM) it was -0.008 ± 0.016; in assay [2] (6700 nM), -0.0765 ± 0.022; in assay [2] (20000 nM), -0.0835 ± 0.0078; in assay [2] (60000 nM), -0.0615 ± 0.086.
As for BE3C:MMP-9, the “level (log10)” value in assay [1] (1100 nM) is -0.0475 ± 0.029; in assay [1] (3300 nM), -0.102 ± 0.0042; in assay [1] (10000 nM) it was -0.0735 ± 0.019; in assay [2] (6700 nM) it was -0.019 ± 0.0042; in assay [2] (20000 nM) it was -0.0135 ± 0.012; in assay [2] (60000 nM) it was 0.007 ± 0.034.
For CASM3C:CD142/Tissue Factor, the “level (log10)” value is -0.013 ± 0.02 in assay [1] (1100 nM); -0.0225 ± 0.016 in assay [1] (3300 nM); -0.038 ± 0.02 in assay [1] (10000 nM); -0.0165 ± 0.0064 in assay [2] (6700 nM); -0.007 ± 0.014 in assay [2] (20000 nM); -0.033 ± 0.0071 in assay [2] (60000 nM).
As for KF3CT:TIMP-2, the “level (log10)” value in assay [1] (1100 nM) is -0.014 ± 0.0028; in assay [1] (3300 nM) it was -0.0405 ± 0.013; in assay [1] (10000 nM), 0.002 ± 0.016; in assay [2] (6700 nM), -0.0075 ± 0.012; in assay [2] (20000 nM), 0.011; in assay [2] (60000 nM), 0.013 ± 0.017.
On to KF3CT:PAI-I, for which the “level (log10)” value in assay [1] (1100 nM) was -0.002 ± 0.0071; in assay [1] (3300 nM), -0.0055 ± 0.012; in assay [1] (10000 nM), 0.001 ± 0.023; in assay [2] (6700 nM), -0.033 ± 0.037; in assay [2] (20000 nM), -0.0505 ± 0.028; in assay [2] (60000 nM) it was -0.039 ± 0.025.
As for lMphg:SRB, the “level (log10)” value in assay [1] (1100 nM) was 0.0045 ± 0.00071; in assay [1] (3300 nM) it was 0.001; in assay [1] (10000 nM), -0.0205 ± 0.005; in assay [2] (6700 nM), -0.006 ± 0.0071; in assay [2] (20000 nM), -0.0025 ± 0.013; in assay [2] (60000 nM), 0.009 ± 0.017.
Turning to CASM3C:LDLR, the “level (log10)” value in assay [1] (1100 nM) is -0.0055 ± 0.0021; in assay [1] (3300 nM) it was -0.0095 ± 0.0064; in assay [1] (10000 nM) it was 0 ± 0.035; in assay [2] (6700 nM) it was -0.011 ± 0.017; in assay [2] (20000 nM), -0.0115 ± 0.0092; in assay [2] (60000 nM) it was -0.0135 ± 0.0092.
As for HDF3CGF:CXCL11/I-TAC, the “level (log10)” value in assay [1] (1100 nM) was -0.0245 ± 0.03; in assay [1] (3300 nM), -0.0655 ± 0.005; in assay [1] (10000 nM), -0.0155 ± 0.04; in assay [2] (6700 nM), -0.005; in assay [2] (20000 nM), 0.0325 ± 0.0021; in assay [2] (60000 nM), 0.0425 ± 0.021.
Consider MyoF:PAI-I, for which the “level (log10)” value in assay [1] (1100 nM) was 0.009 ± 0.0042; in assay [1] (3300 nM), 0.014 ± 0.013; in assay [1] (10000 nM), 0.0205 ± 0.0064; in assay [2] (6700 nM) it was -0.0305 ± 0.0092; in assay [2] (20000 nM), -0.0115 ± 0.0064; in assay [2] (60000 nM) it was 0.0005 ± 0.013.
